This data set is described as follows: lipophilicity (log P) of the quencher. In kind it is physicochemical. As to conditions: organic (oil) phase / aqueous phase partition. The text has this: Lipophilicity, most commonly referred to as the Log P, represents the ratio at equilibrium of the concentration of a compound between two phases, an oil and a […] phase. The Log P value is a constant defined in the following manner: Log P=log 10 (Partition Coefficient) Partition Coefficient, P=[organic]/[aqueous] where the square bracket parenthesis “[ ]” indicates the concentration of solute in the organic and aqueous partition.
Turning to `CCCCCCCCN(CCCCCCCC)CCCCCCCC` [Quencher-A], the logP (usually the decadic logarithm of the partition coefficient of the neutral form, usually between octanol and water) amounted to 10.8.
The same measure for `CCCCCCCCN(CCCCCCCC)C(=O)CCCCCCC` [Quencher-B]: 10.2.
As to `CCCCCCCCCCCC(=O)N(CC)CC` [Quencher-H], the logP turned out to be 5.6.
The same measure for `CCCCCCCCN(CCCCCCCC)C(C)=O` [Quencher-I]: 6.69.
